{"source": "ChEMBL document CHEMBL4052632", "about": "(Eur J Med Chem, 2017)", "key": {"[1]": {"molecular_target": "T1, Glycogen synthase kinase-3 beta (Homo sapiens, UniProt P49841)", "assay": "Inhibition of recombinant human GSK3beta using […] as substrate at 100 uM after 60 mins by spectrophotometric analysis"}, "A2780 [2]": {"system": "A2780", "assay": "Antitumor activity against human A2780 cells xenografted in BALB/c nude mouse assessed as tumor growth inhibition at 30 mg/kg, ip administered once every 2 days for 14 consecutive days relative to control", "type": "functional", "settings": "read-out: TGI"}, "[3]": {"molecular_target": "Insulin-like growth factor 1 receptor (Homo sapiens) (UniProt P08069)", "assay": "Inhibition of IGF1R (unknown origin) using poly (Glu, Tyr) 4:1 as substrate at 100 uM after 1 hr by ELISA relative to control"}, "[4]": {"molecular_target": "Fibroblast growth factor receptor 1 (Homo sapiens) (UniProt P11362)", "assay": "Inhibition of FGFR1 (unknown origin) using poly (Glu, Tyr) 4:1 as substrate at 100 uM after 1 hr by ELISA relative to control"}, "[5]": {"molecular_target": "Mitogen-activated protein kinase 13 (Homo sapiens) (UniProt O15264)", "sequence (O15264 whole entry)": "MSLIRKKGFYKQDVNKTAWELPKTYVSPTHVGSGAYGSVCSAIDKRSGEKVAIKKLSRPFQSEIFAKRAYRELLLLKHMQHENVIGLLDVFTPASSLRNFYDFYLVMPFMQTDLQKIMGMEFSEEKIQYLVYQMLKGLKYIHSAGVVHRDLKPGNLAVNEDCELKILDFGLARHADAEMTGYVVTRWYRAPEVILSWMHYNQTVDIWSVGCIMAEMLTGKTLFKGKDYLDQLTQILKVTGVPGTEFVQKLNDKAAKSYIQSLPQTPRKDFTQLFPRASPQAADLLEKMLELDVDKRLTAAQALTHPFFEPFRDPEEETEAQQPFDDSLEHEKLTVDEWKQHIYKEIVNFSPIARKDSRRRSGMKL", "assay": "Inhibition of recombinant human SAPK4 using Ulight-CFFKNIVTPRTPPPSQGK-amide as substrate at 100 uM after 15 mins in presence of ATP relative to control"}, "[6]": {"molecular_target": "Tyrosine-protein kinase receptor UFO (Homo sapiens) (UniProt P30530)", "assay": "Inhibition of AXL (unknown origin) using poly (Glu, Tyr) 4:1 as substrate at 100 uM after 1 hr by ELISA relative to control"}, "[7]": {"molecular_target": "Protein kinase C alpha type (Homo sapiens) (UniProt P17252)", "assay": "Inhibition of recombinant human PKCalpha using biotinyl-beta Abeta Abeta AKIQASFRGHMARKK as substrate at 100 uM after 10 mins in presence of ATP relative to control"}, "A2780 [8]": {"system": "A2780", "assay": "Induction of apoptosis in human A2780 cells assessed as total apoptotic cells at 5 to 20 uM after 24 hrs by annexin V/propidium iodide staining based flow cytometry (reference value: 17.3%)", "type": "functional"}, "A2780 [9]": {"system": "A2780", "assay": "Antitumor activity against human A2780 cells xenografted in BALB/c nude mouse assessed as tumor growth inhibition at 50 mg/kg, ip administered once every 2 days for 14 consecutive days relative to control", "type": "functional", "settings": "read-out: TGI"}, "[10]": {"molecular_target": "5'-AMP-activated protein kinase catalytic subunit alpha-1 (Homo sapiens) (UniProt Q13131)", "sequence (Q13131 whole entry, looked up)": "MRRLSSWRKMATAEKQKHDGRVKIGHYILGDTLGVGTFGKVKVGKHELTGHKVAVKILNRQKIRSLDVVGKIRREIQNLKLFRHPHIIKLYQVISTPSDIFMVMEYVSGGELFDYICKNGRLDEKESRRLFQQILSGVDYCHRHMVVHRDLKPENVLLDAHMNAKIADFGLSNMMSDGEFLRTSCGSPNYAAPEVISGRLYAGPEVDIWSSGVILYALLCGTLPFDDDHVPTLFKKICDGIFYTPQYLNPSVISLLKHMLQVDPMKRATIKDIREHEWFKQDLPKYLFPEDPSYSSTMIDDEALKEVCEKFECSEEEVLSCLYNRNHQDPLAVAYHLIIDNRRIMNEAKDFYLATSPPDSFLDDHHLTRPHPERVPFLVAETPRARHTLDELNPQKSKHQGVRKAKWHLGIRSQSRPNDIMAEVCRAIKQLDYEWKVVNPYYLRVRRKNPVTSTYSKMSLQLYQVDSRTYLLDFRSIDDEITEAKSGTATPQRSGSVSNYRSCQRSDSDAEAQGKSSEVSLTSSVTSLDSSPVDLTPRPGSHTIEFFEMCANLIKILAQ", "assay": "Inhibition of full length recombinant human AMPKalpha1 using AMARAASAAALARRR as substrate at 100 uM after 40 mins in presence of ATP relative to control"}, "[11]": {"molecular_target": "ALK tyrosine kinase receptor (Homo sapiens) (UniProt Q9UM73)", "assay": "Inhibition of ALK (unknown origin) using poly (Glu, Tyr) 4:1 as substrate at 100 uM after 1 hr by ELISA relative to control"}, "cells": {"assay": "cells", "settings": "Homo sapiens, OVCA433, 48 h", "description": "Antiproliferative activity against human OVCA433 cells measured after 48 hrs by MTT assay"}, "A2780 [12]": {"system": "A2780", "assay": "Cell cycle arrest in human A2780 cells assessed as accumulation at G0/G1 phase at 5 to 15 uM after 48 hrs by propidium iodide staining based flow cytometry ( Rvb = 60%)", "type": "functional"}, "[13]": {"molecular_target": "3-phosphoinositide-dependent protein kinase 1 (Homo sapiens) (UniProt O15530)", "sequence (O15530 whole entry)": "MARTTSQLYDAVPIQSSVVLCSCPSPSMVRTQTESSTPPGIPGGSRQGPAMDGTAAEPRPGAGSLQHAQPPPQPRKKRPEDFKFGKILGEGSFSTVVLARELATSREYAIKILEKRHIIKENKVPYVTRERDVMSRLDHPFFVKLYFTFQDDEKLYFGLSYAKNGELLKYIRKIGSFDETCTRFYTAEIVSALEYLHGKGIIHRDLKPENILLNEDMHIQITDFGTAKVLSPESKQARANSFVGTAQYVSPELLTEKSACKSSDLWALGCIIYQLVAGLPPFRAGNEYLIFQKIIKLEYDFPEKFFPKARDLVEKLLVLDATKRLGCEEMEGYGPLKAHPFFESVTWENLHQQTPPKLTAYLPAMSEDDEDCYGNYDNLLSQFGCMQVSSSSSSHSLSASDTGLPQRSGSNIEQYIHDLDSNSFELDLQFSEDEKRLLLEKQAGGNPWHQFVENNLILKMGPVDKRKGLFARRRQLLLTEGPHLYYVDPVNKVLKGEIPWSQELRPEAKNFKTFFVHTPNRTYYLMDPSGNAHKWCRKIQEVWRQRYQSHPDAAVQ", "assay": "Inhibition of recombinant human PDK1 using Ulight-FLGFTYVAP as substrate at 100 uM after 90 mins in presence of ATP relative to control"}, "[14]": {"molecular_target": "Cyclin-dependent kinase 2/cyclin E1 (Homo sapiens) (UniProt P24864+P24941)", "assay": "Inhibition of recombinant human CDK2/CyclinE using Ulight-CFFKNIVTPRTPPPSQGK-amide as substrate at 100 uM after 30 mins in presence of ATP relative to control", "type": "protein-complex assay"}, "[15]": {"molecular_target": "Hepatocyte growth factor receptor (Homo sapiens) (UniProt P08581)", "assay": "Inhibition of c-Met (unknown origin) using poly (Glu, Tyr) 4:1 as substrate at 100 uM after 1 hr by ELISA relative to control"}, "[16]": {"molecular_target": "Platelet-derived growth factor receptor alpha (Homo sapiens) (UniProt P16234)", "sequence (P16234 whole entry)": "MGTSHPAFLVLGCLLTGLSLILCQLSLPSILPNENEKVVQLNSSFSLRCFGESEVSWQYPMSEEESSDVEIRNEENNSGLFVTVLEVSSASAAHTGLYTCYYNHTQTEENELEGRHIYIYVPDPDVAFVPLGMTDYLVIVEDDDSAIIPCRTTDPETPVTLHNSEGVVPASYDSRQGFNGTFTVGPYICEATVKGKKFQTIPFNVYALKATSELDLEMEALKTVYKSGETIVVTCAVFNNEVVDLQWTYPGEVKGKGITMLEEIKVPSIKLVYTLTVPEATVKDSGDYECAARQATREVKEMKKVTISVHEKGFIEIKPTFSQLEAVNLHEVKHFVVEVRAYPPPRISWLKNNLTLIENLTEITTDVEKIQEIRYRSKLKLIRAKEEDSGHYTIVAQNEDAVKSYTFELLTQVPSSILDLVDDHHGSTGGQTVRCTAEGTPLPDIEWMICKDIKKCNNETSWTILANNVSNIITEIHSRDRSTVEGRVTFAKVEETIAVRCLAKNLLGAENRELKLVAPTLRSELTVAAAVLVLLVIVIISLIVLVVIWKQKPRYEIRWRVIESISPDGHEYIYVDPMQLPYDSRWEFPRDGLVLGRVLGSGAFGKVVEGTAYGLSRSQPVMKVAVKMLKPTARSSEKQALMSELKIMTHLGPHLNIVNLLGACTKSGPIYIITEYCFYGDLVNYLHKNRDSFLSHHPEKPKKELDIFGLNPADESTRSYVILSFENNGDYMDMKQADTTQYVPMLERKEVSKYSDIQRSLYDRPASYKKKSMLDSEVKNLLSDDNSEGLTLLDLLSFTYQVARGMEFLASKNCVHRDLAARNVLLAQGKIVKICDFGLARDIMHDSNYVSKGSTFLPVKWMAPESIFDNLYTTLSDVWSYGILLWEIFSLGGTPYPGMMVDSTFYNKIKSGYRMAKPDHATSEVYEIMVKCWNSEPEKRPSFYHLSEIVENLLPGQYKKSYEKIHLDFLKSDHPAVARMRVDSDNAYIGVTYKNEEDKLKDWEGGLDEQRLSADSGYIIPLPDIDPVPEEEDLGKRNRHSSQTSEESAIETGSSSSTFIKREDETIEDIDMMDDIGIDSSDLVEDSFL", "assay": "Inhibition of PDGFRalpha (unknown origin) using poly (Glu, Tyr) 4:1 as substrate at 100 uM after 1 hr by ELISA relative to control"}, "Homo sapiens [17]": {"species_on_record": "Homo sapiens", "assay": "Inhibition of human PKA at 100 uM in presence of ATP relative to control"}, "Mus musculus": {"system": "Mus musculus", "assay": "Toxicity in nude BALB/c mouse xenografted with human A2780 cells assessed as body weight loss at 30 mg/kg, ip administered once every 2 days for 14 consecutive days relative to control", "type": "organism-based", "settings": "in vivo, 48 h"}, "[18]": {"molecular_target": "Mitogen-activated protein kinase 1 (Homo sapiens) (UniProt P28482)", "assay": "Inhibition of human MAPK2 at 100 uM in presence of ATP relative to control"}, "A2780 [19]": {"system": "A2780", "assay": "Cell cycle arrest in human A2780 cells assessed as decrease in S phase after 48 hrs by propidium iodide staining based flow cytometry", "type": "functional"}, "[20]": {"molecular_target": "Vascular endothelial growth factor receptor 2 (Homo sapiens) (UniProt P35968)", "assay": "Inhibition of KDR (unknown origin) using poly (Glu, Tyr) 4:1 as substrate at 100 uM after 1 hr by ELISA relative to control"}, "Saccharomyces cerevisiae": {"system": "Saccharomyces cerevisiae", "assay": "Inhibition of yeast CK1 using poly (Glu, Tyr) 4:1 as substrate after 1 hr by ELISA relative to control", "settings": "concentration not given here"}, "[21]": {"molecular_target": "RAC-alpha serine/threonine-protein kinase (Homo sapiens) (UniProt P31749)", "assay": "Inhibition of recombinant human PKBalpha using CREBtide (CKRREILSRRPSYRK) as substrate at 100 uM after 60 mins in presence of ATP relative to control"}, "[22]": {"molecular_target": "Mitogen-activated protein kinase 8 (Homo sapiens) (UniProt P45983)", "sequence (P45983 whole entry)": "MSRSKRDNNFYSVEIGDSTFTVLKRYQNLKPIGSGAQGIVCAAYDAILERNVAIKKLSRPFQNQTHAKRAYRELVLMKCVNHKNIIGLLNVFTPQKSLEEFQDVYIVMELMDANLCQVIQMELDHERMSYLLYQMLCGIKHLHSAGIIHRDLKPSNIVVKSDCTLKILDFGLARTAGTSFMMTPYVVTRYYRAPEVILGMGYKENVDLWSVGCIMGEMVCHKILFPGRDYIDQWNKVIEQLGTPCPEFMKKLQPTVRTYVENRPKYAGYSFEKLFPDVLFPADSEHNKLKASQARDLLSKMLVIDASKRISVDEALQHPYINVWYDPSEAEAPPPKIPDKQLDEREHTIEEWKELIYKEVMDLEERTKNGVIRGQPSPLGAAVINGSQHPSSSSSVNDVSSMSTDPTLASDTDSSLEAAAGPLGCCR", "assay": "Inhibition of human JNK1alpa1 using at 100 uM after 90 mins in presence of ATP relative to control"}, "[23]": {"molecular_target": "Platelet-derived growth factor receptor beta (Homo sapiens) (UniProt P09619)", "assay": "Inhibition of PDGFRbeta (unknown origin) using poly (Glu, Tyr) 4:1 as substrate at 100 uM after 1 hr by ELISA relative to control"}, "[24]": {"molecular_target": "Receptor tyrosine-protein kinase erbB-4 (Homo sapiens) (UniProt Q15303)", "sequence (Q15303 whole entry)": "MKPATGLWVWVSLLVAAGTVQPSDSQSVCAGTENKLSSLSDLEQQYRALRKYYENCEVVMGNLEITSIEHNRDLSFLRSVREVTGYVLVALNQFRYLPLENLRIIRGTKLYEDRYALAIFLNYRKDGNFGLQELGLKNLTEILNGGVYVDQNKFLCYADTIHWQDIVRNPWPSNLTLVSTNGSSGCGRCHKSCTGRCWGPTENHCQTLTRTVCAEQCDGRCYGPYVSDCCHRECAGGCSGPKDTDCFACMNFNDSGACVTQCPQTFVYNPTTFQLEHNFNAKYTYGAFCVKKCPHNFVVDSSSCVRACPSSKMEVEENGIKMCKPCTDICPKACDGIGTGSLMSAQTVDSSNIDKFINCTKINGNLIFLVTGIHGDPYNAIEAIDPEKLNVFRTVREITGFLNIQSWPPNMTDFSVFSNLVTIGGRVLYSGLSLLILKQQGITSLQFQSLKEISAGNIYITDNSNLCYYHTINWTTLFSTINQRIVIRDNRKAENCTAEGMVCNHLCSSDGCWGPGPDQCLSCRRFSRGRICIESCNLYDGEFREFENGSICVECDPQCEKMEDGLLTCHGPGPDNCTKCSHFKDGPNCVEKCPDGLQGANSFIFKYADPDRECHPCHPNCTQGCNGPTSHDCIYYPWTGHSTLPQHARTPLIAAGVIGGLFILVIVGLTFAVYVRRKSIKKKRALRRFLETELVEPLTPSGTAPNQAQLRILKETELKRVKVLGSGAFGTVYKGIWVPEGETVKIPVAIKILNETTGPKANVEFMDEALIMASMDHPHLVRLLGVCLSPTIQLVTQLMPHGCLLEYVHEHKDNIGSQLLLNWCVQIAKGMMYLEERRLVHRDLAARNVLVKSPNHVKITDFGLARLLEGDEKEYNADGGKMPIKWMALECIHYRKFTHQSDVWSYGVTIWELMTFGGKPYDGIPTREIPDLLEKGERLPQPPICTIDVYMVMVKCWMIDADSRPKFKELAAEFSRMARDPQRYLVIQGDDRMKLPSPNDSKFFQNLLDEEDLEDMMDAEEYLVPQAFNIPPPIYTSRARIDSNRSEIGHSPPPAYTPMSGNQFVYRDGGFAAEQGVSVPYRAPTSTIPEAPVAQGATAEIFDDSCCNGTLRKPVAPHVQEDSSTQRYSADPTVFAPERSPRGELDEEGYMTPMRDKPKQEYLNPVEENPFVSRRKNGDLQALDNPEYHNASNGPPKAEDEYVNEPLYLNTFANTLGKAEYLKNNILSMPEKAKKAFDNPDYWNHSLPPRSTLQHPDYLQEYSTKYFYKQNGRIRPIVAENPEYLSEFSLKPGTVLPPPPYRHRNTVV", "assay": "Inhibition of ErbB4 (unknown origin) using poly (Glu, Tyr) 4:1 as substrate at 100 uM after 1 hr by ELISA relative to control"}, "[25]": {"molecular_target": "Receptor tyrosine-protein kinase erbB-2 (Homo sapiens) (UniProt P04626)", "assay": "Inhibition of ErbB2 (unknown origin) using poly (Glu, Tyr) 4:1 as substrate at 100 uM after 1 hr by ELISA relative to control"}, "[26]": {"molecular_target": "T1, Glycogen synthase kinase-3 beta", "assay": "biochemical", "description": "Inhibition of recombinant N-terminal His6-tagged human GSK3beta H350L mutant expressed in baculovirus infected Sf21 insect cells using polypeptide GS-2 as substrate after 30 mins in presence of ATP by kinase-glo luminescence assay"}, "A2780 [27]": {"system": "A2780", "assay": "Cell cycle arrest in human A2780 cells assessed as decrease in G2/M phase after 48 hrs by propidium iodide staining based flow cytometry", "type": "functional"}, "Homo sapiens [28]": {"species_on_record": "Homo sapiens", "assay": "Inhibition of recombinant human CK2 using Ulight-IkappaB-alpha as substrate at 100 uM after 60 mins in presence of ATP relative to control"}}}
{"smiles": "CCCCCCCCCCCCCCC(=O)NC1CCN(C(=O)C2Sc3ccccc3N(CC)C2=O)CC1", "note": "(stereo unspecified)", "values": [{"measurement": "inhibition", "setting": "[1]", "value": 94.3, "unit": "%"}, {"measurement": "inhibition in vivo at 30 mg/kg", "setting": "A2780 [2]", "value": 37.8, "unit": "%"}, {"measurement": "inhibition", "setting": "[3]", "value": 5.1, "unit": "%"}, {"measurement": "inhibition", "setting": "[4]", "value": 9.3, "unit": "%"}, {"measurement": "inhibition", "setting": "[5]", "value": 16, "unit": "%"}, {"measurement": "inhibition", "setting": "[6]", "value": 33.8, "unit": "%"}, {"measurement": "inhibition", "setting": "[7]", "value": -7, "unit": "%"}, {"measurement": "Activity", "setting": "A2780 [8]", "value": 83.3, "unit": "%"}, {"measurement": "inhibition in vivo at 50 mg/kg", "setting": "A2780 [9]", "value": 41.3, "unit": "%"}, {"measurement": "inhibition", "setting": "[10]", "value": 34, "unit": "%"}, {"measurement": "inhibition", "setting": "[11]", "value": -1.7, "unit": "%"}, {"measurement": "IC50", "setting": "cells", "value": 8.3, "unit": "µM"}, {"measurement": "Activity", "setting": "A2780 [12]", "value": 77.1, "unit": "%"}, {"measurement": "inhibition", "setting": "[13]", "value": 0, "unit": "%"}, {"measurement": "inhibition", "setting": "[14]", "value": 39, "unit": "%"}, {"measurement": "inhibition", "setting": "[15]", "value": -4.8, "unit": "%"}, {"measurement": "inhibition", "setting": "[16]", "value": 0, "unit": "%"}, {"measurement": "inhibition", "setting": "Homo sapiens [17]", "value": 36, "unit": "%"}, {"measurement": "Activity", "setting": "Mus musculus", "value": "Non-Toxic"}, {"measurement": "inhibition", "setting": "[18]", "value": 7, "unit": "%"}, {"measurement": "Activity", "setting": "A2780 [19]", "value": "Dose-dependent effect"}, {"measurement": "inhibition", "setting": "[20]", "value": 22.5, "unit": "%"}, {"measurement": "inhibition", "setting": "Saccharomyces cerevisiae", "value": 14, "unit": "%"}, {"measurement": "inhibition", "setting": "[21]", "value": 52, "unit": "%"}, {"measurement": "inhibition", "setting": "[22]", "value": -3, "unit": "%"}, {"measurement": "inhibition", "setting": "[23]", "value": 19.6, "unit": "%"}, {"measurement": "inhibition", "setting": "[24]", "value": 34.3, "unit": "%"}, {"measurement": "inhibition", "setting": "[25]", "value": 0, "unit": "%"}, {"measurement": "IC50", "setting": "[26]", "value": 22.4, "unit": "µM"}, {"measurement": "Activity", "setting": "A2780 [27]", "value": "Dose-dependent effect"}, {"measurement": "inhibition", "setting": "Homo sapiens [28]", "value": 0, "unit": "%"}]}
